In patent EP0266640A2 (Euro-Celtique S.A., priority 1986, dated 1988):

Tested on: asthmatic patients
Assay: controlled triple-cross-over clinical study, body plethysmographic test of lung function (RAW, FEV1), with pulse and blood pressure
Format: in vivo
Experimental: In a controlled triple-cross-over study, in a body phlethysmographic test of the lung function, the effectiveness of and tolerance to the individual substances compared to the combination were investigated.
The investigation was carried out on three in-patients with chronic-obstructive airway diseases.
The associated medication with dosing aerosols was reduced to a minimum and noted in a special test report. It was ensured that no aerosol was used at least eight hours prior to each lung function investigation.
The medication sequence was randomised, with a wash-out-phase of two days after each medication.
It was ensured that all the patients had received no xanthine 24 hours before the controlled investigation (lung function test and determination of reversibility).
The lung function (RAW and FEV₁) and the pulse of the patients were measured on the first and third day always at the same time of day, as shown in Fig. 3. On the third day of the investigation, after the final measurement of lung function, the reversibility was again determined, 15 minutes after inhalation of 400 microgram Fenoterol.

SMILES: Cn1c(=O)c2[nH]cnc2n(C)c1=O [Theophylline, 1,3-dimethylxanthine]
- remaining reversibility (further improvement by inhalation of the dosing aerosol) (third day, after inhalation of 400 microgram Fenoterol, 10 mg Nifedipine alone or 300 mg Theophylline alone twice daily): still left a considerable further improvement

SMILES: CC(Cc1ccc(O)cc1)NCC(O)c1cc(O)cc(O)c1 (stereo not shown) [Fenoterol]
- rise of FEV₁ mean-value (reversibility) (start of investigation, after inhalation of 400 microgram): 45%
- FEV₁ mean-value (start of investigation, after inhalation of 400 microgram, baseline ca. 1,5 l): ca. 2.2 l
- reduction of airway resistance (reversibility) (start of investigation, after inhalation of 400 microgram, referred to the initial value): 50%
